Data: patent US5928185A, “Iontophoresis device for the transcutaneous delivery of an active principle such as an anionic oligosaccharide” (Sanofi, priority 1995, dated 1999)

Tests used:
[1] = Administration of pentasaccharide sodium salt in minipigs: iontophoresis vs passive, I.V. and subcutaneous; plasma antifactor Xa (Example 3); assay type: in vivo, minipig (YUCATAN strain)
Experimental: Administration in minipigs of pentasaccharide sodium salt by iontophoresis at a set current density
Specialists consider minipigs of the YUCATAN strain to be an excellent animal model for studying the administration in man of medicaments by iontophoresis. This is because the skin structure of this animal is very similar to that of human skin.
The following tests were carried out on the aforementioned minipig with the aim of comparing the administration of the sodium salt of the pentasaccharide used in the previous examples by iontophoresis with administration by subcutaneous or intravenous injection.
For these tests, pairs of adhesive electrode sets were formed, each pair having a donor electrode assembly formed by a reversible negative electrode (active electrode) in contact with a first reservoir element holding the pentasaccharide to be administered, and a passive electrode assembly formed by a positive electrode (back electrode) in contact with a second reservoir element (receptacle element) holding an indifferent electrolyte.
Referring to the figure, each electrode assembly included a disc 1 of polyethylene foam having an axial cylindrical recess 2, the said disc having an adhesive face 3 and a non-adhesive face 4, each of the said faces having the shape of an annular area with a width of two centimetres. The end 5 of the recess in the disc, on the non-adhesive face side, was closed off by an electrode 6 in the form of a silver disc chlorided on one of its faces, the said disc having a cross-sectional area of 20 cm^2. The chlorided face 7 of the electrode disc is turned towards the interior of the recess. […] The said support disc, having a diameter intermediate between that of the electrode 6 and the disc 1, was bonded onto the non-adhesive face of the latter disc. The recess 2 in the disc 1 was filled with a conductive hydrogel 11 forming the reservoir element. The adhesive face 3 of the disc 1 was coated with a pressure-sensitive adhesive designed to be applied to the skin, the said face 3 and the face 12 adjacent to the reservoir element 11 being initially covered with a peelable non-stick polyester protective film which was removed before application to the skin.
In the donor electrode assembly, the negative electrode (active electrode) of chlorided silver contained a quantity of silver chloride equivalent to 1.8 mAh/cm^2, thus allowing the electrode to sustain the quantity of current flowing through the electrodes over the duration of the iontophoretic treatment, namely 1.2 mAh/cm^2. The reservoir element associated with the negative electrode was filled over a thickness of 2 mm, i.e. a quantity of 4 g over the 20 cm^2 of electrode, with a hydrogel based on xanthan and carob extract having 3% of dry extract and containing 2% by weight of sodium salt of the pentasaccharide of formula (I) given above. The donor electrode assembly therefore contained 80 mg of pentasaccharide in a ratio of 4 mg/cm^2 for each of the animals which were treated.
In the passive electrode assembly, the positive electrode (back electrode) made of chlorided silver contained a quantity of silver chloride equivalent to 0.1 mAh/cm^2, and the reservoir element associated with this electrode consisted of the same hydrogel as the one present in the donor electrode assembly, but without pentasaccharide and instead holding 4% by weight of NaCl.
An electrical signal generator, connectable to the electrodes of each electrode assembly pair, made it possible to deliver between the said electrodes a pulsed electrical signal of controlled intensity, having a frequency of 25 kHz and a duty ratio equal to 50%. […]

[2] = Transdermic passage of sodium pentasaccharide salt by iontophoresis at constant voltage through nude rat skin (Example 1)
Experimental: Study of the transdermic passage of a sodium pentasaccharide salt by iontophoresis at constant voltage.
The operation was carried out in iontophoresis cells of identical structure. Each iontophoresis cell consisted of three coaxial adjacent cylindrical compartments having a cross-sectional area of 2 cm^2, namely, in this order, a donor compartment, a receiver compartment and a back-electrode compartment, these three compartments being each separated from the following one in leak-tight fashion by a piece of nude rat skin (OFA/hr/hr) used as a membrane for studying the transcutaneous diffusion. […] The receiver compartment, having a volume of 10 ml, held physiological saline solution supplemented with 500 ppm of NaN3 and was stirred using a magnetic bar. The back-electrode compartment, which was identical to the donor compartment, held 0.5 ml of a 2% by weight aqueous solution of sodium chloride as well as 500 ppm by weight of NaN3. At its opposite end from the receiver compartment, the donor compartment was equipped with a negative electrode. In the same way as the donor compartment, the back-electrode compartment was equipped with a positive electrode (back electrode).
The rat skin samples had had the subcutaneous tissue removed and had been preserved by freezing at -40° C. until they were mounted in the iontophoresis cell, with the dermic faces turned towards the receiver compartment, after they had been placed for 15 minutes in physiological saline solution supplemented with 500 ppm of NaN3.
For each of the tests which were carried out, four identical iontophoresis cells were started simultaneously. The active exchange surface area was 2 cm^2 for each skin.
A pulsed current generator made it possible to set up an electrical signal of the potentiostatic type between the electrodes of the four cells, mounted in parallel, with a peak voltage equal to 2.2 volts and a duty ratio of 50% (i.e. an average voltage of 1.1 volts) and a frequency of 25 kHz.
The pulsed current produced by the generator was applied for 6 hours, the electrode of the donor compartment of each cell being connected to the negative pole of the said generator, and the back electrodes to the positive pole.
At the end of the said time, an aliquot of the medium contained in the receiver compartment was withdrawn and the quantity of pentasaccharide that had passed through the skin separating the donor and the receiver compartments of each cell was determined by assay. A second sample was taken 24 hours after the start of each experiment, i.e. 18 hours after the electrical signal had stopped.
Five tests 1a to 1e were carried out as follows:
Test 1a: The negative electrode and the positive electrode consisted of a titanium film having a thickness equal to 10 μm. No voltage was applied to the electrodes, in order to determine the passive transcutaneous diffusion.
Test 1b: The negative electrode and the positive electrode consisted of a graphite sheet having a thickness of 60 μm.
Test 1c: The negative electrode and the positive electrode consisted of a titanium film having a thickness equal to 10 μm.
Test 1d to 1e: The negative electrode consisted of a silver film having a thickness of 15 μm, chlorided beforehand on one face in order to contain a silver chloride layer corresponding to 1.8 mAh/cm^2, whereas the positive electrode consisted of a silver film having a thickness of 15 μm, very slightly chlorided on one face (a quantity of silver chloride corresponding to 0.1 mAh/cm^2, the chlorided face of each electrode being on the side adjacent to the rat skin membrane.
In tests Ia to Id, the donor and the receiver compartments of each cell held a 0.06 molar buffer composition based on sodium monohydrogenphosphate and dihydrogenphosphate in equimolar quantities, so as to keep the pH in the said compartments at a value of about 7. In test 1e, no buffer was used.

[3] = test 3b: iontophoresis 0.20 mA/cm^2, 6 hours
[4] = test 3c: I.V. bolus 0.240 mg/kg
[5] = test 3d: subcutaneous 0.200 mg/kg

Plasma level at 0 minutes ([1]; test 3a: passive, no current): 0 "Golden standard" units of ant
Plasma level at 5 minutes ([1]; test 3a: passive, no current): 0 "Golden standard" units of ant
Plasma level at 15 minutes ([1]; test 3a: passive, no current): 0 "Golden standard" units of ant
Plasma level at 30 minutes ([1]; test 3a: passive, no current): 0 "Golden standard" units of ant
Plasma level at 1 hour ([1]; test 3a: passive, no current): 0 "Golden standard" units of ant
Plasma level at 2 hours ([1]; test 3a: passive, no current): 0 "Golden standard" units of ant
Plasma level at 4 hours ([1]; test 3a: passive, no current): 0 "Golden standard" units of ant
Plasma level at 6 hours ([1]; test 3a: passive, no current): 0 "Golden standard" units of ant
Plasma level at 8 hours ([1]; test 3a: passive, no current): 0 "Golden standard" units of ant
Plasma level at 12 hours ([1]; test 3a: passive, no current): 0 "Golden standard" units of ant
Plasma level at 24 hours ([1]; test 3a: passive, no current): 0 "Golden standard" units of ant
Plasma level at 30 hours ([1]; test 3a: passive, no current): 0 "Golden standard" units of ant
plasma levels, expressed in terms of antifactor Xa, compared with intravenous or subcutaneous injections ([1]; test 3b: iontophoresis): higher plasma levels
Plasma level at 0 minutes [1, 3]: 0 "Golden standard" units of ant
Plasma level at 30 hours [1, 3]: 0 "Golden standard" units of ant
bioavailability (active principle administered, normalized to quantity present in the electrodes) ([1]; test 3b, 80 mg engaged): about 9%
quantity of pentasaccharide administered per mAh ([1]; test 3b, for 1 mAh/cm^2): 292 μg/cm^2
quantity of pentasaccharide administered per cm^2 ([1]; test 3b, for 1.2 mAh/cm^2): 350 μg/cm^2
quantity of pentasaccharide actually administered by iontophoresis ([1]; test 3b, for the 20 cm^2, from areas under the curves): 7 ± 1.3 mg
Plasma level at 0 minutes [1, 4]: 0 "Golden standard" units of ant
Plasma level at 24 hours [1, 4]: 0 "Golden standard" units of ant
Plasma level at 30 hours [1, 4]: 0 "Golden standard" units of ant
Plasma level at 0 minutes [1, 5]: 0 "Golden standard" units of ant
Plasma level at 24 hours [1, 5]: 0 "Golden standard" units of ant
Plasma level at 30 hours [1, 5]: 0 "Golden standard" units of ant
quantities of pentasaccharide diffused into the receiver compartment by iontophoresis ([2]; Ag/AgCl negative electrodes (reversible)): increase very greatly
Fraction of active principle used (%) ([2]; at 6 hours, test 1a: titanium, 0 V (passive)): ~ zero
Fraction of active principle used (%) ([2]; at 6 hours, test 1b: graphite, 1.1 V): 0.1%
Fraction of active principle used (%) ([2]; at 6 hours, test 1c: titanium, 1.1 V): 0.08%
Fraction of active principle used (%) ([2]; at 6 hours, test 1e: Ag/AgCl, 1.1 V, no buffer): 2.8%
Fraction of active principle used (%) ([2]; at 6 hours, test 1d: Ag/AgCl, 1.1 V, buffer): 1.4%
Fraction of active principle used (%) ([2]; at 24 hours, test 1a: titanium, 0 V (passive)): ~ zero
Fraction of active principle used (%) ([2]; at 24 hours, test 1b: graphite, 1.1 V): 0.2%
Fraction of active principle used (%) ([2]; at 24 hours, test 1c: titanium, 1.1 V): 0.15%
Fraction of active principle used (%) ([2]; at 24 hours, test 1e: Ag/AgCl, 1.1 V, no buffer): 3.3%
Fraction of active principle used (%) ([2]; at 24 hours, test 1d: Ag/AgCl, 1.1 V, buffer): 1.5%
Antifactor activity Xa/ml at 6 hours ([2]; test 1a: titanium electrodes, 0 V (passive), buffer pH about 7): < 0.1 units per ml
Antifactor activity Xa/ml at 24 hours ([2]; test 1a: titanium, 0 V (passive)): 0.25 units per ml
Antifactor activity Xa/ml at 6 hours ([2]; test 1b: graphite electrode, average 1.1 V, buffer): 0.70 units per ml
Antifactor activity Xa/ml at 24 hours ([2]; test 1b: graphite, 1.1 V, 18 hours after current stopped): 1.13 units per ml
Antifactor activity Xa/ml at 6 hours ([2]; test 1c: titanium electrode, average 1.1 V, buffer): 0.50 units per ml
Antifactor activity Xa/ml at 24 hours ([2]; test 1c: titanium, 1.1 V, 18 hours after current stopped): 0.95 units per ml
Antifactor activity Xa/ml at 6 hours ([2]; test 1e: Ag/AgCl electrode, average 1.1 V, about 0.20 mA/cm^2, no buffer): 18.1 units per ml
Antifactor activity Xa/ml at 24 hours ([2]; test 1e: Ag/AgCl, 1.1 V, no buffer, 18 hours after current stopped): 21.4 units per ml
Antifactor activity Xa/ml at 6 hours ([2]; test 1d: Ag/AgCl electrode, average 1.1 V, about 0.20 mA/cm^2, buffer): 9.1 units per ml
Antifactor activity Xa/ml at 24 hours ([2]; test 1d: Ag/AgCl, 1.1 V, buffer, 18 hours after current stopped): 9.7 units per ml
Structure (SMILES): O=C(O)C1OC(OC2C(COS(=O)(=O)O)OC(OC3C(C(=O)O)OC(OC4C(COS(=O)(=O)O)OC(O)C(NS(=O)(=O)O)C4O)C(OS(=O)(=O)O)C3O)C(NS(=O)(=O)O)C2OS(=O)(=O)O)C(O)C(O)C1OC1OC(COS(=O)(=O)O)C(O)C(O)C1NS(=O)(=O)O (stereo not drawn) [pentasaccharide]
Plasma level at 15 minutes [1, 3]: 0.06 ± 0.04 "Golden standard" units of ant
Plasma level at 30 minutes [1, 3]: 0.15 ± 0.12 "Golden standard" units of ant
Plasma level at 1 hour [1, 3]: 0.31 ± 0.15 "Golden standard" units of ant
Plasma level at 2 hours [1, 3]: 0.45 ± 0.2 "Golden standard" units of ant
Plasma level at 4 hours [1, 3]: 0.64 ± 0.18 "Golden standard" units of ant
Plasma level at 6 hours [1, 3]: 0.74 ± 0.16 "Golden standard" units of ant
Plasma level at 8 hours [1, 3]: 0.52 ± 0.13 "Golden standard" units of ant
Plasma level at 12 hours [1, 3]: 0.4 ± 0.08 "Golden standard" units of ant
Plasma level at 24 hours [1, 3]: 0.11 ± 0.03 "Golden standard" units of ant
Plasma level at 5 minutes [1, 4]: 1.04 ± 0.12 "Golden standard" units of ant
Plasma level at 15 minutes [1, 4]: 0.91 ± 0.13 "Golden standard" units of ant
Plasma level at 30 minutes [1, 4]: 0.65 ± 0.11 "Golden standard" units of ant
Plasma level at 1 hour [1, 4]: 0.53 ± 0.10 "Golden standard" units of ant
Plasma level at 2 hours [1, 4]: 0.30 ± 0.09 "Golden standard" units of ant
Plasma level at 4 hours [1, 4]: 0.29 ± 0.08 "Golden standard" units of ant
Plasma level at 6 hours [1, 4]: 0.22 ± 0.09 "Golden standard" units of ant
Plasma level at 8 hours [1, 4]: 0.17 ± 0.06 "Golden standard" units of ant
Plasma level at 12 hours [1, 4]: 0.07 ± 0.05 "Golden standard" units of ant
Plasma level at 15 minutes [1, 5]: 0.11 ± 0.04 "Golden standard" units of ant
Plasma level at 1 hour [1, 5]: 0.17 ± 0.01 "Golden standard" units of ant
Plasma level at 2 hours [1, 5]: 0.22 ± 0.04 "Golden standard" units of ant
Plasma level at 4 hours [1, 5]: 0.26 ± 0.06 "Golden standard" units of ant
Plasma level at 6 hours [1, 5]: 0.24 ± 0.01 "Golden standard" units of ant
Plasma level at 8 hours [1, 5]: 0.15 ± 0.07 "Golden standard" units of ant
Plasma level at 12 hours [1, 5]: 0.08 ± 0.03 "Golden standard" units of ant
quantities of pentasaccharide diffused into the receiver compartment by iontophoresis ([2]; irreversible electrodes such as graphite or titanium): very small and similar to the passive transport
